Test results from patent US9493478B2, “Fused ring compound containing furan or salt thereof and pharmaceutical composition comprising same” (YUHAN CORPORATION, priority 2012, dated 2016).

Experiments:
Assay type in all cases: biochemical
[1] = target: PI3Kγ (p120γ)(h) (Homo sapiens, UniProt P48736); test: Assay for phosphatidylinositol 3-kinase gamma (PI3Kγ) activity, PI3K-HTRF kit; details: TR-FRET; enzyme 1.45 μg/ml, 10 μM PIP2, 10 μM ATP
Procedure: (§1) The compounds of the present invention were assayed for the activity of phosphatidylinositol 3-kinase gamma (PI3Kγ) by using a PI3K enzyme-homogenous time resolved fluorescence (PI3K-HTRF) kit, which is available from Upstate (Millipore Co, Billerica, Mass., USA).
(§2) Three kinds of buffer solutions including a phosphorylation reaction solution (a reaction buffer containing 40 mM MgCl2 which is available from Upstate was diluted 4 times and added with 5 mM DTT), a stop solution (STOP A and B solutions which are available from Upstate were mixed at a ratio of 3:1) and a fluorescence detection solution (Detection solutions A, B and C which are available from Upstate were mixed at a ratio of 1:1:18) were prepared. 1 mM of PIP2 substrate (phosphatidylinositol 4,5 biphosphate; Upstate), PI3Kγ (#14-558; Upstate) enzyme and 10 mM ATP (Sigma Aldrich Co., St. Louis, Mo., USA) were prepared. Each of PI3Kγ, 1 mM PIP2 and 10 mM ATP was diluted to 2.9 μg/ml (final reaction concentration: 1.45 μg/ml), 20 μM (final reaction concentration: 10 μM) and 40 μM (final reaction concentration: 10 μM), respectively. The buffer solution used for dilution and preparation process was the phosphorylation reaction solution. The stop solution was used for the termination of phosphorylation reaction, and the fluorescence detection solution was used for the detection of time-resolved fluorescence signals.
(§3) Each test sample was transferred to a 384 well low flange white flat bottom microplate (#3572, Corning Life Sciences, Lowell, Mass., USA) by using a multi 8-channel (Pipetman Neo multi 8×20, Gilson, Middleton, Wis., USA) to make a final phosphorylation reaction volume of 20 μl per each well. For the negative control, 5 μl of 14.4% DMSO and 10 μl of PIP2 substration solution were used, and 5 μl of 14.4% DMSO and 10 μl of PIP2/PI3Kγ mixed solution were used as the positive control. For the test group, 5 μl of a solution prepared by dissolving the compound obtained in Example in DMSO and 10 μl of PIP2/PI3Kγ mixed solution were used. Before the initiation of the phosphorylation reaction, sample compounds were pretreated with the enzyme for approximately 10 minutes, and then the phosphorylation reaction was induced by adding 5 μl of ATP. Since each of the test compound and ATP takes up 25% of the total volume, and PIP2 and PI3Kγ take up 50% of the total volume during the reaction, each solution was concentrated 4 and 2 times, respectively, before mixing the solutions. Subsequently, the test sample was gently shook for 3 minutes and subjected to a phosphorylation reaction for 90 minutes at room temperature, which was then added with 5 μl of the stop solution to terminate the phosphorylation reaction. In order to induce a time-resolved fluorescence reaction, 5 μl of the fluorescence detection solution was added to the sample. The fluorescence detection solution contains biotin-phosphatidylinositol 3,4,5-triphosphate (PIP3), streptavidin-labeled Allopycocyanin (APC) and europium-labeled Pleckstrin homology domain (the PIP3 binds to PH domain), and the time-resolved fluorescence reaction is induced by a series of reaction of PH domain and PIP3, and biotin and streptavidin. The sample was left to stand for 6 hours at room temperature, and the time-resolved fluorescence resonance energy transfer (TR-FRET) rate was measured (emission wavelength: 665 nm, 620 nm, excitation wavelength: 340 nm) by using a Flexstation3 Micro plate reader (Molecular Devices, USA). TR-FRET Rate and TR-Inhibition Rate were calculated based on Equations 1 and 2 below, and the results are expressed in IC50, which is the concentration of a compound that inhibits 50% of PI3Kγ activity in vitro. TR-FRET Rate=(665 nm emission wavelength/620 nm emission wavelength)×10000 <Equation 1> TR-FRET Inhibition Rate=[(TR-FRET Rate of Sample−TR-FRET Rate of Negative Control)/(TR-FRET Rate of Positive Control−TR-FRET Rate of Negative Control)]×100 <Equation 2>

[2] = target: PI3Kα (p110α/p85α)(h) (Homo sapiens, UniProt P42336); test: Assay for phosphatidylinositol 3-kinase alpha (PI3Kα) activity, PI3K-HTRF kit; details: TR-FRET; enzyme 0.3625 μg/ml, 10 μM PIP2, 10 μM ATP
Procedure: [The source words this procedure for another target and says it was used here with some conditions changed.] as §1, §2, §3

[3] = target: PI3K β (p110β/p85α)(h) (Homo sapiens, UniProt P42338); test: Assay for phosphatidylinositol 3-kinase beta (PI3Kβ) activity, PI3K-HTRF kit; details: TR-FRET; enzyme 0.725 μg/ml, 10 μM PIP2, 10 μM ATP
Procedure: [The source words this procedure for another target and says it was used here with some conditions changed.] as §1, §2
as §3, with “2> […]” for “2>”

[4] = target: PI3Kδ (p110δ/p85α)(h) (Homo sapiens, UniProt O00329); test: Assay for phosphatidylinositol 3-kinase delta (PI3Kδ) activity, PI3K-HTRF kit; details: TR-FRET; enzyme 0.725 μg/ml, 10 μM PIP2, 10 μM ATP
Procedure: [The source words this procedure for another target and says it was used here with some conditions changed.] as §1, §2
as §3, with “2> […]” for “2>”

Chain of PI3Kγ (p120γ)(h) (P48736 whole entry): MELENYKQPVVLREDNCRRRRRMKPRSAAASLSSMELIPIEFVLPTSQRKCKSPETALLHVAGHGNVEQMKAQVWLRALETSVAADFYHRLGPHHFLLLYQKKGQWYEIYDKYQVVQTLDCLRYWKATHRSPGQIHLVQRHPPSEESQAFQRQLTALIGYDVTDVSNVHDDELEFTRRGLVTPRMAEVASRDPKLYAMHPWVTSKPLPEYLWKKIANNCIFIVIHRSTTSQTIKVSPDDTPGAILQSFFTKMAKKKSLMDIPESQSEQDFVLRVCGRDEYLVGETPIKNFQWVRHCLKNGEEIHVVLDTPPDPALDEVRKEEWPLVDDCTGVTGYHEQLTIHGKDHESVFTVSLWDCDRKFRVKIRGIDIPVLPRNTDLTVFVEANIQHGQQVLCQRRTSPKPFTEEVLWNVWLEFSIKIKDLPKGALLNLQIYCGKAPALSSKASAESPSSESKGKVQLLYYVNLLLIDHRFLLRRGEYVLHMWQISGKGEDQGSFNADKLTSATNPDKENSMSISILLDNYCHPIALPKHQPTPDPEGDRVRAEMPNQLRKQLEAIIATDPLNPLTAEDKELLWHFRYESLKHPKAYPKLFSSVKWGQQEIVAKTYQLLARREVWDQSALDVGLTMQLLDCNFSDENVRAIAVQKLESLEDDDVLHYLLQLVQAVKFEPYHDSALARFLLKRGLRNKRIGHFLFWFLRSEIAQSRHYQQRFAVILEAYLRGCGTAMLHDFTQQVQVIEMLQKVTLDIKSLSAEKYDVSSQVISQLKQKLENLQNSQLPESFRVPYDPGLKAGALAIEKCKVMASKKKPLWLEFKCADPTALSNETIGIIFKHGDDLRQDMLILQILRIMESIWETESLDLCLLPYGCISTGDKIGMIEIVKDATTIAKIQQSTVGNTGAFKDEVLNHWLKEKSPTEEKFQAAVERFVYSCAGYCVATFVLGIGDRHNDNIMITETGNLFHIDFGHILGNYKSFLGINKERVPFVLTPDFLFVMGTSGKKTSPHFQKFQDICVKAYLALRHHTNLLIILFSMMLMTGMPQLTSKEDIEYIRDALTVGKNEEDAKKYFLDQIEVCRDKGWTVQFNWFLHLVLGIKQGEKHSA
Chain of PI3K β (p110β/p85α)(h) (P42338 whole entry): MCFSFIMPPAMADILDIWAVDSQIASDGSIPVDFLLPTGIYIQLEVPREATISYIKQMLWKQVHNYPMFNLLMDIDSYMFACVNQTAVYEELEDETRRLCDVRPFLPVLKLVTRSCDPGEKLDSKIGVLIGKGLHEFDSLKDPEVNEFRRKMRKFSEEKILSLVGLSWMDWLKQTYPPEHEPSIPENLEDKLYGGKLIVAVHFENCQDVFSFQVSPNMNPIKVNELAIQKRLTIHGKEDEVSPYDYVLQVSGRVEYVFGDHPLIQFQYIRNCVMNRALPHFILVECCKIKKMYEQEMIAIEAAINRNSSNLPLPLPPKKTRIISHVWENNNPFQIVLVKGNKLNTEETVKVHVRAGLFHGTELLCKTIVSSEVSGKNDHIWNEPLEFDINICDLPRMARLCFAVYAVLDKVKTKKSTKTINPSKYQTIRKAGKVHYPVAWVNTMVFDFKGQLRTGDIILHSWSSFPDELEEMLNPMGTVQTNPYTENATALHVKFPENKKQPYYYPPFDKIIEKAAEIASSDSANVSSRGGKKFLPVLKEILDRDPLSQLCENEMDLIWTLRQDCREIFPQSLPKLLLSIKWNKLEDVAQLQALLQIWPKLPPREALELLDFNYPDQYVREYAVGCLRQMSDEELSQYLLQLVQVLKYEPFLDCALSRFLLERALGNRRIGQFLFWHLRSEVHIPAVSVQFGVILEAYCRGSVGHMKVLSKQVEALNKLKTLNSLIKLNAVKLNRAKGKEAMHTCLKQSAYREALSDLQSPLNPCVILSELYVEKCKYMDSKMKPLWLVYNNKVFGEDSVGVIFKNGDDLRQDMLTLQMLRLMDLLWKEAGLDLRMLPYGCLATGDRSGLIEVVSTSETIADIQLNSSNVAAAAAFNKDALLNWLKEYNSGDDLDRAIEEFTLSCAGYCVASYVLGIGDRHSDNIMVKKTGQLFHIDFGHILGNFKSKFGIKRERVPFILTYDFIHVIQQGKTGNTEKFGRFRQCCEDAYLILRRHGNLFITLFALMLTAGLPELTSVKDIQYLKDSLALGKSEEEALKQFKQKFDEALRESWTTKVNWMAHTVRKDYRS
Chain of PI3K β (p110β/p85α)(h) (P27986 whole entry partner): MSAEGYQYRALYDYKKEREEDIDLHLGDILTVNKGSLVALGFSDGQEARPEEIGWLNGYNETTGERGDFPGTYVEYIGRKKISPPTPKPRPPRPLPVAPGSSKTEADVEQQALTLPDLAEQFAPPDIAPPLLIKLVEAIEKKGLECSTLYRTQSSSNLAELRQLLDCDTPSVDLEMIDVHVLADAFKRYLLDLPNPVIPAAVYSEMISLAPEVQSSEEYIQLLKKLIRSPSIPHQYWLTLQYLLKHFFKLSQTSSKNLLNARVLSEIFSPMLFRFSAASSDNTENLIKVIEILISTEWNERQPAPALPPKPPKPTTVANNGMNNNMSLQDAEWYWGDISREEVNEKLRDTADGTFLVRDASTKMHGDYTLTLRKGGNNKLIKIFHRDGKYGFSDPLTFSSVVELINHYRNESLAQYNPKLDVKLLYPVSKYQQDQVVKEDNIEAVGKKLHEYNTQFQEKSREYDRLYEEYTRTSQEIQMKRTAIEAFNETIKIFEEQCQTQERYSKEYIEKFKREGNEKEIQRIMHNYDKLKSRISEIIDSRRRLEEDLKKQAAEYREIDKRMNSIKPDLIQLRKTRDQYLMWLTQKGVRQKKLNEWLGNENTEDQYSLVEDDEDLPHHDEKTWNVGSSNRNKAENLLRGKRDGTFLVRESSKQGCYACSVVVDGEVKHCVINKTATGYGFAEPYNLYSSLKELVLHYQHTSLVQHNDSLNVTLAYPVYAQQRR
Chain of PI3Kα (p110α/p85α)(h) (P42336 whole entry): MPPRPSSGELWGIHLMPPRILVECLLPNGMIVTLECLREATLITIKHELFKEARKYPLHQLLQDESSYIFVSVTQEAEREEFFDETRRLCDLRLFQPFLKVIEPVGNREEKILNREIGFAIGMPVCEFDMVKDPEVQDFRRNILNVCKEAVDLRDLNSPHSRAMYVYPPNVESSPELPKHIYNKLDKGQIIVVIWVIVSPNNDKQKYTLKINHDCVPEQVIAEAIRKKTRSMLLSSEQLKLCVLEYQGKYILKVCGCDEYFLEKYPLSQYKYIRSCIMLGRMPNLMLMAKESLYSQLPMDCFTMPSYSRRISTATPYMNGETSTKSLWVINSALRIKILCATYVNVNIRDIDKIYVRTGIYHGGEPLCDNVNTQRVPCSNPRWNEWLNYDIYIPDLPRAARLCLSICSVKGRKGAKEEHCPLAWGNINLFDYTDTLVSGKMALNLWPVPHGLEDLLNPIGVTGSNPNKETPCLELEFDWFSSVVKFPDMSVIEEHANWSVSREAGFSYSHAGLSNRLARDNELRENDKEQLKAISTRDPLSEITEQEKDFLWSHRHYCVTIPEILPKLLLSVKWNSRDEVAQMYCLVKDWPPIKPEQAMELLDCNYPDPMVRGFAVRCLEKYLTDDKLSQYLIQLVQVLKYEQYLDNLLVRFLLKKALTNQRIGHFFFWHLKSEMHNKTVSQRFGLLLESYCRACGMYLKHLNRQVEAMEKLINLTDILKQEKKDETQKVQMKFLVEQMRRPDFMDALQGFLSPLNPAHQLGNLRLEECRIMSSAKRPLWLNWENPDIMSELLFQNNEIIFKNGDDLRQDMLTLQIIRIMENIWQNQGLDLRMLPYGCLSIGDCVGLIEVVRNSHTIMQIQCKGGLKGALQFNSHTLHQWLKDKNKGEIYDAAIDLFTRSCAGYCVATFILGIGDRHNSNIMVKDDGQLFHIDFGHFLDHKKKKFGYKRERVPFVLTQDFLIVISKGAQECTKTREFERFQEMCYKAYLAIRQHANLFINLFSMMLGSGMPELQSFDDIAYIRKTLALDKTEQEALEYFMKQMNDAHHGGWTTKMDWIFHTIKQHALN
Chain of PI3Kα (p110α/p85α)(h) (P27986 whole entry partner): as the sequence (P27986 whole entry partner) above
Chain of PI3Kδ (p110δ/p85α)(h) (O00329 whole entry): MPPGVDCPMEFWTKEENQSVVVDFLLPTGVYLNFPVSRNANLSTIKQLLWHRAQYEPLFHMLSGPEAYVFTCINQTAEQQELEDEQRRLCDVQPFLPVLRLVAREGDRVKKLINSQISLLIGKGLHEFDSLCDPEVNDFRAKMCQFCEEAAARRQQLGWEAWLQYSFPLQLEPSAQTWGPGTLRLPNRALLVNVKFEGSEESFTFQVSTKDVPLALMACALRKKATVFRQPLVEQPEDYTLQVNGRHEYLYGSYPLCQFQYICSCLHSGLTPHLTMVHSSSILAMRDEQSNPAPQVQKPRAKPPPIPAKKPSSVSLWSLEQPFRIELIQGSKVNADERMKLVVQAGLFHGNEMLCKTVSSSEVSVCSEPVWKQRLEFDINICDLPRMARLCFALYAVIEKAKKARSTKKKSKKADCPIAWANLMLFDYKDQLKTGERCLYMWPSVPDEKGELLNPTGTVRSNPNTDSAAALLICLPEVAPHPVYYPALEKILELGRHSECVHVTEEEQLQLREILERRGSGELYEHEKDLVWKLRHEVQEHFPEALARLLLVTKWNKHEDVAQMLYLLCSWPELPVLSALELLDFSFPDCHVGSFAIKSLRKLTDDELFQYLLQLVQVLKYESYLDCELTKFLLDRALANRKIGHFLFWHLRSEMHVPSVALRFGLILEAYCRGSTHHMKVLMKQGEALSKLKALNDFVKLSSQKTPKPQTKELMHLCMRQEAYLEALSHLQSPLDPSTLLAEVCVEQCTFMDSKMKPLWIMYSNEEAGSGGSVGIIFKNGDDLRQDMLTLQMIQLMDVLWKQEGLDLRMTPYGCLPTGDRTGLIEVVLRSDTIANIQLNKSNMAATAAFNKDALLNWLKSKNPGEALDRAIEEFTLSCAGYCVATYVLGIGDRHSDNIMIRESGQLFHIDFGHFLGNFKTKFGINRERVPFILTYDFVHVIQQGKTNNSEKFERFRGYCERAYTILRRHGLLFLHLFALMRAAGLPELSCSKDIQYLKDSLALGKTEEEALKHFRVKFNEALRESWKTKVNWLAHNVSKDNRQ
Chain of PI3Kδ (p110δ/p85α)(h) (P27986 whole entry partner): as the sequence (P27986 whole entry partner) above

Row | Structure (SMILES) | IC50 [1] | IC50 [2] | IC50 [3] | IC50 [4]
1 | O=C1NC(=O)/C(=C/c2cc3cncc(C#Cc4ccc(Cl)cc4)c3o2)S1 [Example 541, (Z)-5-([7-{(4-Chlorophenyl)ethynyl}furo[3,2-c]pyridin-2-yl]methylene)thiazolidine-2,4-dione] | 27 nM | 5 nM | 104 nM | 136 nM
2 | O=C1NC(=O)/C(=C/c2cc3cncc(-c4ccc5c(c4)OCO5)c3o2)S1 [Example 36, (Z)-5-[{7-(Benzo[d][1,3]dioxol-5-yl)furo[3,2-c]pyridin-2-yl}methylene]thiazolidine-2,4-dione] | 154 nM | 86 nM | 14 nM | > 10000 nM
3 | O=C1NC(=O)/C(=C/c2cc3cncc(C#Cc4ccc(OC(F)(F)F)cc4)c3o2)S1 [Example 533] | 37 nM | 14 nM | 3720 nM | 2230 nM
4 | COc1ncc(-c2cncc3cc(/C=C4\SC(=S)NC4=O)oc23)cc1C [Example 225, (Z)-5-[{7-(6-Methoxy-5-methylpyridin-3-yl)furo[3,2-c]pyridin-2-yl}methylene]-2-thioxothiazolidin-4-one] | 43 nM | 4 nM | > 10000 nM | > 10000 nM
5 | COc1ccc(-c2cncc3cc(/C=C4\SC(=S)NC4=O)oc23)cc1F [Example 161, (Z)-5-[{7-(3-Fluoro-4-methoxyphenyl)furo[3,2-c]pyridin-2-yl}methylene]-2-thioxothiazolidin-4-one] | 17 nM | 13 nM | > 10000 nM | 191 nM
6 | N#Cc1ccc(C#Cc2cncc3cc(/C=C4\SC(=S)NC4=O)oc23)cc1 [Example 548, (Z)-4-([2-{(4-Oxo-2-thioxothiazolidin-5-ylidene)methyl}furo[3,2-c]pyridin-7-yl]ethynyl)benzonitrile] | 25 nM | 8 nM | 138 nM | 250 nM

These reach a lower IC50 [1]. Values come first.

Row | IC50 [1] | IC50 [2] | IC50 [3] | IC50 [4] | Structure (SMILES)
7 | 16 nM | 8 nM | 443 nM | 188 nM | CN(C)S(=O)(=O)c1ccc(-c2cncc3cc(/C=C4\SC(=S)NC4=O)oc23)cc1OC(F)(F)F [Example 339, (Z)—N,N-Dimethyl-4-[2-{(4-oxo-2-thioxothiazolidin-5-ylidene)methyl}furo[3,2-c]pyridin-7-yl]-2-(trifluoromethoxy)benzenesulfonamide]
8 | 16 nM | 1 nM | 5920 nM | 493 nM | COC(=O)c1cccc(C#Cc2cncc3cc(/C=C4\SC(=S)NC4=O)oc23)c1 [Example 569, (Z)-Methyl 3-([2-{(4-oxo-2-thioxothiazolidin-5-ylidene)methyl}furo[3,2-c]pyridin-7-yl]ethynyl)benzoate]
9 | 15 nM | 1 nM | 2410 nM | 78 nM | CN(C)S(=O)(=O)c1ccc(C#Cc2cncc3cc(/C=C4\SC(=S)NC4=O)oc23)cc1 [Example 571, (Z)—N,N-Dimethyl-4-([2-{(4-oxo-2-thioxothiazolidin-5-ylidene)methyl}furo[3,2-c]pyridin-7-yl]ethynyl)benzenesulfonamide]
10 | 12 nM | 24 nM | > 10000 nM | > 10000 nM | CN(C)S(=O)(=O)c1ccc(-c2cncc3cc(/C=C4\SC(=S)NC4=O)oc23)cc1F [Example 330, (Z)-2-Fluoro-N,N-dimethyl-4-[2-{(4-oxo-2-thioxothiazolidin-5-ylidene)methyl}furo[3,2-c]pyridin-7-yl]benzenesulfonamide]
11 | 10 nM | 68 nM | > 10000 nM | > 10000 nM | O=C1NC(=S)S/C1=C\c1cc2cncc(C#CC3CC3)c2o1 [Example 475, (Z)-5-[{7-(Cyclopropylethynyl)furo[3,2-c]pyridin-2-yl}methylene]-2-thioxothiazolidin-4-one]
12 | 9 nM | 8 nM | > 10000 nM | > 10000 nM | COc1ccc(C#Cc2cncc3cc(/C=C4\SC(=O)NC4=O)oc23)cc1 [Example 437, (Z)-5-([7-{(4-Methoxyphenyl)ethynyl}furo[3,2-c]pyridin-2-yl]methylene)thiazolidine-2,4-dione]
13 | 9 nM | 4 nM | > 10000 nM | > 10000 nM | COC(=O)c1cc(F)cc(-c2cncc3cc(/C=C4\SC(=S)NC4=O)oc23)c1 [Example 351, (Z)-Methyl 3-fluoro-5-[2-{(4-oxo-2-thioxothiazolidin-5-ylidene)methyl}furo[3,2-c]pyridin-7-yl]benzoate]
14 | 4 nM | 11 nM | 3860 nM | 89 nM | CC(C)NS(=O)(=O)c1c(Cl)cc(-c2cncc3cc(/C=C4\SC(=S)NC4=O)oc23)cc1Cl [Example 345, (Z)-2,6-Dichloro-N-isopropyl-4-[2-{(4-oxo-2-thioxothiazolidin-5-ylidene)methyl}furo[3,2-c]pyridin-7-yl]benzenesulfonamide]
15 | 3 nM | 1 nM | 77 nM | 563 nM | COc1cc(-c2cncc3cc(/C=C4\SC(=S)NC4=O)oc23)cc(Cl)c1O [Example 217, (Z)-5-[{7-(3-Chloro-4-hydroxy-5-methoxyphenyl)furo[3,2-c]pyridin-2-yl}-methylene]-2-thioxothiazolidin-4-one]
